The data set can be described thus: Water solubility. Conditions: in 100 g of water at 25° C., 24 hours, visual evaluation.

Source text: As used herein, the term “solubility” used herein in regard to water solubility includes cases where the sample completely dissolves in deionized water to form a homogeneous mixture, and cases where the sample is completely emulsified. As used herein, “completely” means that none of the sample remains in the deionized water.

Regarding `CCCCC(CC)C(=O)OCC(C)(C)COC(=O)C(CC)CCCC` (centres unmarked) [H-208BRS, Neopentylglycol di(2-ethylhexanoate)], the Water solubility (Table 2) is reported as <0.05 g and the Water solubility (Table 3) is <0.05 g.

Source of the values: patent US9301885B2, “Absorbent article” (UNICHARM CORPORATION, priority 2011, dated 2016).
